Data published in patent US20240408066A1, “Treatment Of Conditions Associated With Stress Granule Formation” (priority 2022, published 2024).

Columns and labels:
[1] = target: T1, recombinant mouse TIA1-ECFP+TIA1-EYFP (Mus musculus, UniProt P52912); test: In vitro FRET assay of TIA1 multimerization; format: binding; conditions: TIA1-ECFP+TIA1-EYFP 10 ug/ml each; test compound 0-40 μM; FIG. 4
T1 construct: Full-length mouse TIA1 cDNA was generated from standard RT-PCR from total mouse brain RNA; 6xHis (N); made in house; host or cells: E. coli BL21 AI
T1 sequence (P52912 1-386) 1: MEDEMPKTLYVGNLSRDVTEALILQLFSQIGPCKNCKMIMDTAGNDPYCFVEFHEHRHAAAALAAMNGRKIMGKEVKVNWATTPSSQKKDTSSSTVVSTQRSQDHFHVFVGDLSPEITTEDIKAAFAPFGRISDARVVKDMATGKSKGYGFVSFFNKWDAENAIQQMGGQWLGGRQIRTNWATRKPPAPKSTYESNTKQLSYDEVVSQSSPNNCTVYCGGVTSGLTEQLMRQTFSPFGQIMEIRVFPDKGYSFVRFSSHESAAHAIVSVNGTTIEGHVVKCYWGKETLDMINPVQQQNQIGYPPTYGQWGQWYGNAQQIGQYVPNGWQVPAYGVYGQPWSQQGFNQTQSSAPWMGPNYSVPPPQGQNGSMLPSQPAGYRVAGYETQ
T1 sequence (P52912 1-386) 2: T1 sequence (P52912 1-386) 1
Source text: The assay that takes advantage of a phenomenon involving the transfer of energy between two compatible fluorescent proteins. In particular, the fluorescent proteins CFP and YFP (cyan fluorescent protein and yellow fluorescent protein, respectively) emit fluorescent light of characteristic wavelengths when excited by laser radiation. CFP or YFP was tethered to a TIA1 protein and the hybrid proteins were mixed together. Subsequently, if TIA1 self-interacts (dimerizes), the tethered CFP and YFP proteins are brought into close proximity to one another. When this occurs, laser excitation of CFP leads to a release of energy that is absorbed by YFP, which can be detected in the assay. This assay can be employed in the presence of other agents, such as small molecule compounds, to determine whether their presence has any effect on dimerization of TIA1. This screen was employed to assay compounds in a chemical library in order to identify compounds that effect TIA1 binding and dimerization or multimerization.
One way to establish that test compounds bind recombinant TIA1 is to perform a Förster resonance energy transfer (FRET) experiment. Binding of test compound to monomeric protein is inferred by a change in FRET signal upon ligand-induced multimerization of suitably tagged (c.g.,-ECFP and -EYFP) fusion proteins. In other words, not only must the compound bind to TIA1-ECFP and TIA1-EYFP, it must also induce a change in multimeric state such that energy can be transferred between the ECFP and EYFP tags. […]
Plasmids encoding mouse TIA1-ECFP and TIA1-EYFP were generated by standard PCR-based cloning techniques. […] Samples are read in real-time with a fluorescence microplate reader. To measure donor FRET, samples are excited at 430+30 nm, and […] is measured at 480+20 nm. Compounds that drive multimerization of the fusion proteins cause proximal localization of the ECFP and EYFP moieties, leading to a reduction in ECFP fluorescence with ECFP excitation due to energy transfer to EYFP. […]

[2] = target: T2, recombinant mouse TIA1 with human recombinant tau (0N4R isoform) (Mus musculus, UniProt P52912); test: TIA1-induced oligomerization of tau protein in vitro (oTau immunoblotting); format: biochemical; conditions: fixed ratio of TIA1:tau; as a function of drug concentration and time (0.5-2 h); FIG. 5 right panels
T2 sequence (P52912 1-386): T1 sequence (P52912 1-386) 1
Method: Oligomeric tau is the most pathological configuration of the protein.
Purified full-length recombinant mouse TIA1 protein was generated from standard cloning methods followed by standard protocols for bacterial expression and purification. Recombinant TIA1 was incubated with commercially available human recombinant tau (ON4R isoform) obtained from R&D Systems at the indicated molar ratios/concentrations. After indicated incubation times, reactions were spotted onto nitrocellulose membrane followed by immunoblotting with primary antibodies that recognize oligomeric tau (oTau) or TIA1. Fluorescently labeled secondary antibody staining against indicated primary antibodies was followed by quantitative image analysis using a Li-COR Odyssey system. Experiment A evaluates the impact of TIA1:tau molar ratio on tau oligomerization and whether OTX0049 at a single test concentration interferes with TIA1-dependent tau oligomerization (FIG. 5, left panels). The experiment represented in the right panels measure the dose-response of OTX0049 and OTX1017 (Formula I in claims) inhibition of TIA1-dependent tau oligomerization at a fixed ratio of recombinant TIA1:tau (FIG. 5, right panels).

rTg4510 transgenic mice = test: Cellular pathology in rTg4510 mouse model (GFAP and NeuN immunohistochemistry); format: in vivo; conditions: 5 mg/kg i.p. once per week for 7 weeks beginning at 77 d; FIG. 7
Method: rTg4510 transgenic mice are a well-established model of tauopathy based on expression of a human tau mutant (P301L). […] Given that these cellular pathological events are driven by tau, TIA1 antagonists compounds should limit tau-dependent pathology.
rTg4510 transgenic mice were treated with DMSO vehicle or OTX1017 (Formula I in claims 5 mg/kg i.p.) once per week for 7 weeks beginning at 77 d. Hippocampal slices were then prepared for conventional immunohistochemistry with GFAP (neuroinflammation marker) and NeuN (neuronal marker), followed by quantitation using NIH ImageJ. GFAP signal was quantitated in cortex (ctx) (white arrows). NeuN staining was used to calculate average thickness of the CA1 pyramidal cell layer for each slice.

PS19 transgenic mice = test: Tau oligomerization in vivo in PS19 mice (hippocampal dot blots, oligomeric tau-specific antibody); design: species or system mouse; conditions: 10 mg/kg i.p. once per week for 6 weeks; FIG. 10
Method: FIG. 10 illustrates the inhibition of tau oligomerization in vivo by OTX1017. Mice were treated with 10 mg/kg OTX1017 i.p., once per week, for 6 weeks, hippocampal extracts were prepared, and dot blots were performed with an oligomeric tau-specific antibody.

| Structure (SMILES) | multimerization of TIA1 (FRET signal) [1] | TIA1-dependent tau oligomerization, dose-response [2] | GFAP staining in the cortex (neuroinflammation) (rTg4510 transgenic mice) | thickness of the CA1 pyramidal layer neurons (NeuN staining) (rTg4510 transgenic mice) | oligomeric tau in the hippocampus (PS19 transgenic mice) |
| --- | --- | --- | --- | --- | --- |
| CCOC(=O)c1ccc(-n2sc3ccccc3c2=O)cc1 [Formula III] | demonstrate FRET signals indicative of TIA1 multimerization |  |  |  |  |
| Cc1ccc(C)c(-n2[se]c3cc(F)ccc3c2=O)c1 [OTX1017] | Induce Multimerization of Recombinant Mouse TIA1 | drug-dependent reduction of TIA1-dependent tau oligomerization | ameliorated | ameliorated by drug treatment | significantly reduces the presence of oligomeric tau in the hippocampus |
| Cc1ccc(C)c(-n2[se]c3cncnc3c2=O)c1 [OTX1018] | Induce Multimerization of Recombinant Mouse TIA1 |  |  |  |  |
